{
  "source": "patent US20090258860A1",
  "about": "“XANTHINE DERIVATIVES FOR THE TREATMENT OF VASCULAR DEPRESSION” (Duke University, priority 2006, published 2009)",
  "key": {"[1]": {"test_system": "elderly patients with a diagnosis of vascular depression", "assay": "Case studies of pentoxifylline and propentofylline treatment of vascular depression (HDRS)", "assay_type": "in vivo, human", "details": "oral monotherapy", "method": "Patients are evaluated at baseline and at regular intervals for a period of months. They are evaluated according to the Hamilton Depressive Rating Scale (HDRS; Hamilton, J. Neurol. Neurosurg. Psychiatry 23:56-62 (1960)). Patients are excluded if their HDRS is ≦15.\nIn one group, pentoxifylline is administered orally in a dose of 400 mg three times a day. In another group, propentofylline is administered orally in a dose of 200 mg three times a day."}, "[2]": {"test_system": "elderly patients with a diagnosis of vascular depression currently being treated with an SSRI and/or SNRI", "assay": "Case studies of pentoxifylline and propentofylline add-on treatment of vascular depression (HDRS)", "assay_type": "in vivo, human", "details": "add-on to existing SSRI and/or SNRI", "method": "These case studies investigate the effects of pentoxifylline and propentofylline in one or more elderly patients (>60 years of age) with a diagnosis of vascular depression and who are currently being treated with an SSRI and/or SNRI.\nPatients are evaluated at baseline and at regular intervals for a period of months. They are evaluated according to the Hamilton Depressive Rating Scale (HDRS; Hamilton, J. Neurol. Neurosurg. Psychiatry 23:56-62 (1960)).\nIn one group, pentoxifylline is administered orally in a dose of 400 mg three times a day to augment their SSRI and/or SNRI treatment regimen. In another group, propentofylline is administered orally in a dose of 200 mg three times a day to augment their SSRI and/or SNRI treatment regimen."}, "[3]": {"test_system": "patients with multi-infarct dementia", "details": "cited from earlier work"}, "[4]": {"details": "in vivo; cited from earlier work"}},
  "data": [
    {"smiles": "CC(=O)CCCCn1c(=O)c2c(ncn2C)n(C)c1=O", "note": "[pentoxifylline, 1-(5-oxohexyl)-3,7-dimethylxanthine]", "values": [
      {"measurement": "tolerability", "setting": "[1]", "value": "well tolerated"},
      {"measurement": "tolerability", "setting": "[2]", "value": "well tolerated"},
      {"measurement": "intellectual and cognitive function", "setting": "[3]", "value": "improve"}
    ]},
    {"smiles": "CCCn1cnc2c1c(=O)n(CCCCC(C)=O)c(=O)n2C", "note": "[propentofylline, 1-(5-oxohexyl)-3-methyl-7-n-propylxanthine]", "values": [
      {"measurement": "tolerability", "setting": "[1]", "value": "well tolerated"},
      {"measurement": "tolerability", "setting": "[2]", "value": "well tolerated"}
    ]},
    {"smiles": "CC(O)CCCCn1c(=O)c2c(ncn2C)n(C)c1=O", "note": "(stereo not drawn) [1(5-hydroxyhexyl)-3,7-dimethylxanthine]", "values": [
      {"measurement": "cerebral blood flow", "setting": "[4]", "value": "increasing cerebral blood flow"}
    ]}
  ]
}
